target: T1, P2X3 (Homo sapiens, UniProt P56373); assay: P2X3 Antagonist Assay (FLIPR calcium, Fluo-8, HEK293 cells transfected with human ion channel cDNAs, αβ-meATP stimulation); assay type: cell-based; settings: HEK293, @ 1 μM, antagonist mode, αβ-meATP 3 μM, read-out: P2X3 IC50 column, given as % @ 1 μM
T1 construct: expressed in transfected cells; host or cells: HEK293
T1 sequence (P56373 1-397): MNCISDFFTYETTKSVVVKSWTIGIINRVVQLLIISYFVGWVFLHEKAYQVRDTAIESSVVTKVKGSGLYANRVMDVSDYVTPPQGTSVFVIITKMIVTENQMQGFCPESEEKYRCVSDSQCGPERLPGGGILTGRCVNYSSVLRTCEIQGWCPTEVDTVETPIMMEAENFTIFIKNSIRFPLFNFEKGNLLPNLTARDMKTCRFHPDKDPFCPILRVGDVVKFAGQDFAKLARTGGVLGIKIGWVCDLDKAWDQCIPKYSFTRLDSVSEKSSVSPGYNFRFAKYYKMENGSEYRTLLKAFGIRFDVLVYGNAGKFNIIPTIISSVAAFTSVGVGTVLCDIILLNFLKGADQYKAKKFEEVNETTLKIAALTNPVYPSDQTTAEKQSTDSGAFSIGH
Experimental: Example 59: P2X3 Antagonist Assay
HEK293 were transiently or stably transfected with human ion channel cDNAs as indicated in section 1. Stable transfectants were selected by coexpression with the antibiotic-resistance gene(s) incorporated into the expression plasmid(s). Selection pressure was maintained by including selection antibiotics in the culture medium. HEK293 cells were cultured in Dulbecco's Modified Eagle Medium/Nutrient Mixture F-12 (D-MEM/F-12) supplemented with 10% fetal bovine serum, 100 U/mL penicillin G sodium, 100 J·Lg/mL streptomycin sulfate and appropriate selection antibiotics.
The effect of each test article to act as an antagonist was evaluated. Each test article was evaluated at eight (8) concentrations (0.001, 0.003, 0.01, 0.03, 0.1, 0.3, 1 and 3 μM, n=3) with 4 replicates for each concentration. Experiments were performed with the FLIPR calcium sensitive dye kit (Fluo-8 dye, AAT, Bioquest) according to the manufacturer's instructions. • Dye-loading: Growth media will be removed and add 20 μL of Mg^++-free HBPS containing Fluo-8 for 30 min at 37° C. • Preincubation (FLIPR step 1): Adding 5× (5 μL) test, vehicle, or control article solutions in Mg^+-free HBPS to each well for 20 minutes at room temperature, protected from light. • Stimulation (FLIPR step 2): After pre-incubation, cells will be stimulated with 6× (5 μL) αβ-meATP at final concentration of 3 μM prepared in Mg^++-free HBPS. • Non-Specific Calcium Influx (FLIPR step 3): 5 minutes after stimulation solution addition, non-specific calcium influx will be activated by adding 7×(5 μL) ionomycin at a final concentration of 5 μM. Fluorescence will be recorded continuously during FLIPR steps 2 and 3. • Positive Control Antagonist: PPADS (1 mM).
Data acquisition was performed via the FLIPRControl software that is supplied with the FLIPR System (MDS-AT) and data was analyzed using Microsoft Excel2003 (Microsoft Corp., Redmond, WA).

Row | inhibition at 1 µM [%] | SMILES
1 | 29 | CNC(=O)c1cc(F)c(-c2nc3cc(C)ccn3c2CC2COCCN(C(=O)OC)C2)c(F)c1 (single isomer, unassigned) [A16 (Peak 1), methyl 6-((2-(2,6-difluoro-4-(methylcarbamoyl)phenyl)-7-meth-ylimidazo[1,2-a]pyridin-3-yl)methyl)-1,4-oxazepane-4-carboxylate]
2 | 22 | CNC(=O)c1cc(F)c(-c2nc3cc(C)ccn3c2CC2CCCC(NC(C)=O)C2)c(F)c1 (single isomer, unassigned) [trans-A22 (Peak 1), 4-(3-((3-acetamidocyclohexyl)methyl)-7-methylimidazo[1,2-a]pyridin-2-yl)-3,5-difluoro-N-methylbenzamide]

same assay, conditions: antagonist mode, αβ-meATP 3 μM

Row | SMILES | IC50 [nM]
3 | CNC(=O)c1cc(F)c(-c2nc3cc(C)ccn3c2CC2CCC(NC(C)=O)CC2)c(F)c1 (stereo not drawn) [trans-A21, 4-(3-((4-acetamidocyclohexyl)methyl)-7-methylimidazo[1,2-a]pyridin-2-yl)-3,5-difluoro-N-methylbenzamide] | > 1000
4 | CNC(=O)c1cc(F)c(-c2nc3cc(C)ccn3c2CC2CCCN(C(=O)OC)CC2)c(F)c1 (single isomer, unassigned) [A18 (Peak 2), methyl 4-((2-(2,6-difluoro-4-(methylcarbamoyl)phenyl)-7-methylimidazo[1,2-a]pyridin-3-yl)methyl)azepane-1-carboxylate] | 100 to 1000
5 | CNC(=O)c1cc(F)c(-c2nc3cc(C)ccn3c2CC2CCCC(NC(C)=O)C2)c(F)c1 (single isomer, unassigned) [cis-A22 (Peak 2), 4-(3-((3-acetamidocyclohexyl)methyl)-7-methylimidazo[1,2-a]pyridin-2-yl)-3,5-difluoro-N-methylbenzamide] | < 100
6 | CNC(=O)c1cc(F)c(-c2nc3cc(C)ccn3c2C[C@@H]2CCCN(C(=O)OC)C2)c(F)c1 [(S)-A19, methyl (S)-3-((2-(2,6-difluoro-4-(methylcarbamoyl)phenyl)-7-methylimidazo[1,2-a]pyridin-3-yl)methyl)piperidine-1-carboxylate] | < 100
7 | CNC(=O)c1cc(F)c(-c2nc3cc(C)ccn3c2CC2CCCC(NC(C)=O)C2)c(F)c1 (single isomer, unassigned) [cis-A22 (Peak 1), 4-(3-((3-acetamidocyclohexyl)methyl)-7-methylimidazo[1,2-a]pyridin-2-yl)-3,5-difluoro-N-methylbenzamide] | < 100
8 | CNC(=O)c1ccc(-c2nc3cc([S+](C)[O-])ccn3c2C[C@H]2CN(C(=O)OC)CCO2)c(F)c1 (single isomer, unassigned) [A47 (Peak 2)] | > 1000
9 | CNC(=O)c1cc(F)c(-c2nc3cc(C)ccn3c2C[C@H]2CCCN(C(=O)OC)C2)c(F)c1 [(R)-A19, methyl (R)-3-((2-(2,6-difluoro-4-(methylcarbamoyl)phenyl)-7-methylimidazo[1,2-a]pyridin-3-yl)methyl)piperidine-1-carboxylate] | < 100
10 | CNC(=O)c1cc(F)c(-c2nc3cc(C)ccn3c2CC2CCCN(C(=O)OC)CC2)c(F)c1 (single isomer, unassigned) [A18 (Peak 1), methyl 4-((2-(2,6-difluoro-4-(methylcarbamoyl)phenyl)-7-methylimidazo[1,2-a]pyridin-3-yl)methyl)azepane-1-carboxylate] | < 100

More lines, now with the values ahead:

Row | IC50 [nM] | SMILES
11 | > 1000 | CNC(=O)c1ccc(-c2nc3cc(S(C)(=O)=O)ccn3c2C[C@H]2CN(C(=O)OC)CCO2)c(F)c1 [Compound A48, methyl (S)-2-((2-(2-fluoro-4-(methylcarbamoyl)phenyl)-7-(methylsulfonyl)imidazo[1,2-a]-pyridin-3-yl)methyl)morpholine-4-carboxylate]
12 | < 100 | CNC(=O)c1ccc(-c2nc3cc(Cl)ccn3c2C[C@H]2CN(C(=O)OC)CCO2)c(F)c1 [Compound A11, methyl (S)-2-((2-(2-fluoro-4-(methylcarbamoyl)phenyl)-7-chloroimidazo[1,2-a]pyridin-3-yl)methyl)morpholine-4-carboxylate]
13 | < 100 | CNC(=O)c1cc(F)c(-c2nc3cc(C)ccn3c2C[C@H]2CN(C(=O)OC)CCO2)c(OC)c1F [Compound A30, methyl (S)-2-((2-(3,6-difluoro-2-methoxy-4-(methylcarbamoyl)-phenyl)-7-methylimidazo[1,2-a]pyridin-3-yl)methyl)morpholine-4-carboxylate]
14 | < 100 | CNC(=O)c1cc(F)c(-c2nc3cc(OC)ccn3c2C[C@H]2CN(C(=O)OC)CCO2)c(F)c1 [Compound A3, methyl (S)-2-((2-(2,6-difluoro-4-(methylcarbamoyl)phenyl)-7-methoxyimidazo[1,2-a]pyridin-3-yl)methyl)morpholine-4-carboxylate]
15 | < 100 | CCN(C)C(=O)c1ccc(-c2nc3cc(Cl)ccn3c2C[C@H]2CN(C(=O)OC)CCO2)c(F)c1 [Compound A66, methyl (S)-2-((7-chloro-2-(4-(ethyl(methyl)carbamoyl)-2-fluoro-phenyl)imidazo[1,2-a]pyridin-3-yl)methyl)morpholine-4-carboxylate]
16 | < 100 | CNC(=O)c1ccc(-c2nc3cc(Cl)ccn3c2C[C@H]2CN(C(=O)OC)CCO2)c(C)c1 [Compound A7, methyl (S)-2-((7-chloro-2-(2-methyl-4-(methylcarbamoyl)phenyl)-imidazo[1,2-a]pyridin-3-yl)methyl)morpholine-4-carboxylate]
17 | > 1000 | COC(=O)N1CCO[C@@H](Cc2c(-c3ccc(C(=O)N4CC[C@@H](O)C4)cc3F)nc3cc(Cl)ccn23)C1 [Compound A69, methyl (S)-2-((7-chloro-2-(2-fluoro-4-((R)-3-hydroxypyrrolidine-1-carbonyl)phenyl)imidazo[1,2-a]pyridin-3-yl)methyl)morpholine-4-carboxylate]
18 | 100 to 1000 | CNC(=O)c1cc(F)c(-c2cc3cc(C)ccc3n2C[C@H]2CN(C(=O)OC)CCO2)c(F)c1 [Compound A23, methyl (S)-2-((2-(2,6-difluoro-4-(methylcarbamoyl)phenyl)-5-methyl-1H-indol-1-yl)methyl)morpholine-4-carboxylate]
19 | 100 to 1000 | CNC(=O)c1cc(F)c(-c2c(C[C@H]3CN(C(=O)OC)CCO3)nc3cc(C)ncn23)c(F)c1 [Compound A37]
20 | < 100 | CNC(=O)c1ccc(-c2nc3cc(C(F)F)ccn3c2C[C@H]2CN(C(=O)OC)CCO2)c(C)c1 [Compound A43, methyl (S)-2-((7-(difluoromethyl)-2-(2-methyl-4-(methylcarbamoyl)phenyl)imidazo[1,2-a]pyridin-3-yl)methyl)morpholine-4-carboxylate]
21 | < 100 | CNC(=O)c1cc(C)c(-c2nc3cc(C)ccn3c2C[C@H]2CN(C(=O)OC)CCO2)cc1F [Compound A12, methyl (S)-2-((2-(5-fluoro-2-methyl-4-(methylcarbamoyl)phenyl)-7-methylimidazo[1,2-a]pyridin-3-yl)methyl)morpholine-4-carboxylate]
22 | < 100 | CNC(=O)c1ccc(-c2nc3cc(C)ccn3c2C[C@H]2CN(C(=O)OC)CCO2)c(Cl)c1 [Compound A8, methyl (S)-2-((2-(2-chloro-4-(methylcarbamoyl)phenyl)-7-methyl-imidazo[1,2-a]pyridin-3-yl)methyl)morpholine-4-carboxylate]
23 | > 1000 | CNC(=O)c1cc(F)c(-c2cc3cc(C)cnc3n2C[C@H]2CN(C(=O)OC)CCO2)c(F)c1 [Compound A25, methyl (S)-2-((2-(2,6-difluoro-4-(methylcarbamoyl)phenyl)-5-methyl-1H-pyrrolo[2,3-b]pyridin-1-yl)methyl)morpholine-4-carboxylate]
24 | < 100 | CCc1ccn2c(C[C@H]3CN(C(=O)OC)CCO3)c(-c3ccc(C(=O)NC)cc3F)nc2c1 [Compound A45, methyl (S)-2-((7-ethyl-2-(2-fluoro-4-(methylcarbamoyl)phenyl)imidazo[1,2-a]pyridin-3-yl)methyl)morpholine-4-carboxylate]
25 | < 100 | CNC(=O)c1cc(F)c(-c2nc3cc(C)ncn3c2C[C@H]2CN(C(=O)OC)CCO2)c(F)c1 [Compound A29, methyl (S)-2-((2-(2,6-difluoro-4-(methylcarbamoyl)phenyl)-7-methylimidazo[1,2-c]pyrimidin-3-yl)methyl)morpholine-4-carboxylate]
